Where two headings read alike, the source gives them in different places.
Assays:
DYRK1A [1] = target: T1, DYRK1A (Rattus norvegicus, UniProt Q63470); experiment: DYRK1A kinase assay; format: biochemical; conditions: 15 μM ATP
T1 construct: GST; made in house; host or cells: Escherichia coli
Protocol: (§1) The twenty-two (5Z) 5-arylidene-2-thioxo-1,3-thiazolidin-4-ones 3a–v and the twenty-four (5Z) 2-amino-5-arylidene-1,3-thiazolidin-4(5H)-ones 5a–x were evaluated against four different and representative in vitro kinase assays DYRK1A (dual specificity tyrosine phosphorylation regulated kinase), CK1 δ/e (caseine kinase 1), CDK5/p25 (cyclin dependant kinase), and GSK3 α/β (glycogen synthase kinase 3) to evaluate their inhibition potency. […] All the compounds were initially tested at a 10 μM concentration.
After 30-min incubation at 30 °C, the reaction was stopped by harvesting, using a FilterMate harvester (Packard), onto P81 phospho-cellulose papers (GE Healthcare, Chicago, IL, USA) which were washed in 1% phosphoric acid. Scintillation fluid was added and the radioactivity measured in a Packard counter. Blank values were subtracted and activities calculated as pmoles of phosphate incorporated for the 30-min incubation. The activities were expressed in % of the maximal activity, i.e., in the absence of inhibitors. Controls were performed with appropriate dilutions of DMSO. […]

Casein kinase 1 (CK1δ/ε) = experiment: CK1δ/ε kinase assay; format: biochemical, porcine; conditions: 15 μM ATP, read-out: IC50 CK1
Protocol: as §1
(§2) After 30-min incubation at 30 °C, the reaction was stopped by harvesting, using a FilterMate harvester (Packard), onto P81 phospho-cellulose papers (GE Healthcare, Chicago, IL, USA) which were washed in 1% phosphoric acid. Scintillation fluid was added and the radioactivity measured in a Packard counter. Blank values were subtracted and activities calculated as pmoles of phosphate incorporated for the 30-min incubation. The activities were expressed in % of the maximal activity, i.e., in the absence of inhibitors. Controls were performed with appropriate dilutions of DMSO.
Casein kinase 1 (CK1δ/ε) (porcine brain, native) was assayed with 0.67 µg of CKS peptide ([…]pSAYSITA), a CK1 specific substrate obtained from Millegen (Labege, France).

CDK5/p25 = target: T2, CDK5/p25 (Homo sapiens, UniProt Q00535); experiment: CDK5/p25 kinase assay; format: biochemical; conditions: 15 μM ATP
T2 construct: made in house
T2 sequence (Q00535 whole entry): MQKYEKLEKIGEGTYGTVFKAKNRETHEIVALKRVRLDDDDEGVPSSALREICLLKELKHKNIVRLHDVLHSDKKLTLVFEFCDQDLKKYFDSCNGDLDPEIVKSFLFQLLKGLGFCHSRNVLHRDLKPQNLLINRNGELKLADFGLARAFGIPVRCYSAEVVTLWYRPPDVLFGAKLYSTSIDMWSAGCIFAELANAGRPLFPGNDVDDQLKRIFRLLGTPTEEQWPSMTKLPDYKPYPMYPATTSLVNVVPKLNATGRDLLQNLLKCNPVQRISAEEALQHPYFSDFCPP
T2 sequence (Q15078 99-307 partner limits assumed): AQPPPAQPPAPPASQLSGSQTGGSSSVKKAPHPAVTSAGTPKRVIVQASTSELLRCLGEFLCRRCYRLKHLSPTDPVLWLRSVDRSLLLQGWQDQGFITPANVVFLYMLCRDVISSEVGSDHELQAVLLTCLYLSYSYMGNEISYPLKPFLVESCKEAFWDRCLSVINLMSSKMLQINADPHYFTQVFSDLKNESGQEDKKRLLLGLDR
Protocol: as §1, §2
CDK5/p25 (human, recombinant) was prepared as previously described. […] ATP (3000 Ci/mmol; 10 mCi/mL) in a final volume of 30 μL. After 30-min incubation at 30 °C, 25 μL aliquots of supernatant were spotted onto 2.5 × 3 cm pieces of Whatman P81 phospho-cellulose paper, and, 20 s later, the filters were washed five times (for at least 5 min each time) in a solution of 10 mL phosphoric acid/litter of water. The wet filters were counted in the presence of 1 mL ACS (Amersham, UK) scintillation fluid.

GSK-3α/β = GSK-3α/β kinase assay; format: biochemical, porcine; conditions: 15 μM ATP, read-out: IC50 GSK3α/β
Protocol: as §1, §2
GSK-3α/β (porcine brain, native) was assayed, as described for CDK5/p25 but in Buffer A and using a GSK-3 specific substrate (GS-1: […]pEDEEE) (pS stands for phosphorylated serine). GS-1 was synthesized by Millegen (Labege, France).

DYRK1A [2] = conditions: reported; cited from earlier work

Compound: O=C(CCc1ccccc1)NN1C(=O)/C(=C/c2ccc3c(c2)OCO3)SC1=S [Compound 3r, (5Z)-N-(5-Benzo[1,3]dioxol-5-ylmethylene-4-oxo-2-thioxo-thiazolidin-3-yl)-3-phenyl-propionamide]
- IC50 (DYRK1A [1]; Table 4): > 10 µM
- IC50 (Casein kinase 1 (CK1δ/ε); Table 4): > 10 µM
- IC50 (CDK5/p25; Table 4): > 10 µM
- IC50 (GSK-3α/β; Table 4): > 10 µM

Compound: 2-(pyridin-3-yl)-1H-indol-6-ol
- IC50 (DYRK1A [2]): 0.06 µM

Compound: COc1ccc(C(=O)NN2C(=O)/C(=C/c3ccc4c(c3)OCO4)SC2=S)cc1 [Compound 3s]
- IC50 (DYRK1A [1]; Table 4): > 10 µM
- IC50 (Casein kinase 1 (CK1δ/ε); Table 4): > 10 µM
- IC50 (CDK5/p25; Table 4): > 10 µM
- IC50 (GSK-3α/β; Table 4): > 10 µM

Compound: O=C1N=C(N2CCN(Cc3ccc4c(c3)OCO4)CC2)S/C1=C\c1ccc2c(c1)OCO2 [Compound 5j, (5Z)-5-(1,3-Benzodioxol-5-ylmethylene)-2-[1-(1,3-benzodioxol-5-ylmethyl)piperazin-1-yl]-1,3-thiazol-4(5H)-one]
- IC50 (DYRK1A [1]; Table 5): ≥ 10 µM
- IC50 (Casein kinase 1 (CK1δ/ε); Table 5): > 10 µM
- IC50 (CDK5/p25; Table 5): > 10 µM
- IC50 (GSK-3α/β; Table 5): > 10 µM

Compound: O=C(O)CCN1C(=O)/C(=C/c2ccc3c(c2)OCO3)SC1=S [Compound 3v, (5Z)-3-(5-Benzo[1,3]dioxol-5-ylmethylene-4-oxo-2-thioxo-thiazolidin-3-yl)-propionic acid]
- IC50 (DYRK1A [1]; Table 4): 0.7 µM
- IC50 (Casein kinase 1 (CK1δ/ε); Table 4): > 10 µM
- IC50 (CDK5/p25; Table 4): > 10 µM
- IC50 (GSK-3α/β; Table 4): > 10 µM

Compound: O=C1NC(=S)S/C1=C\c1cccc(-c2ccc3c(c2)OCO3)n1 [Compound 3h, (5Z)-5-{[6-(1,3-Benzodioxol-5-yl)pyridin-2-yl]methylene}-2-thioxo-1,3-thiazolidin-4-one]
- IC50 (DYRK1A [1]; Table 4): 0.35 µM
- IC50 (Casein kinase 1 (CK1δ/ε); Table 4): > 10 µM
- IC50 (CDK5/p25; Table 4): > 10 µM
- IC50 (GSK-3α/β; Table 4): 1.6 µM

Compound: c1csc(CNc2ncnc3ccc(-c4ccc5c(c4)OCO5)cc23)c1 [V]
- IC50 (DYRK1A [2]): 0.062 µM

Compound: O=C(O)CN1C(=O)/C(=C/c2ccc3c(c2)OCO3)SC1=S [Compound 3u, (5Z)-(5-Benzo[1,3]dioxol-5-ylmethylene-4-oxo-2-thioxo-thiazolidin-3-yl)-acetic acid]
- IC50 (DYRK1A [1]; Table 4): 0.16 µM
- IC50 (Casein kinase 1 (CK1δ/ε); Table 4): > 10 µM
- IC50 (CDK5/p25; Table 4): > 10 µM
- IC50 (GSK-3α/β; Table 4): > 10 µM

Compound: CN1CCN(C2=NC(=O)/C(=C/c3ccc4c(c3)OCO4)S2)CC1 [Compound 5f, (5Z)-5-(1,3-Benzodioxol-5-ylmethylene)-2-(4-N-methylpiperazin-1-yl)-1,3-thiazol-4(5H)-one]
- IC50 (DYRK1A [1]; Table 5): 2.3 µM
- IC50 (Casein kinase 1 (CK1δ/ε); Table 5): > 10 µM
- IC50 (CDK5/p25; Table 5): > 10 µM
- IC50 (GSK-3α/β; Table 5): > 10 µM

Compound: Nc1nccc(-c2c[nH]c3nccc(O)c23)n1 [Merioline 2]
- IC50 (DYRK1A [2]): 0.029 µM

Compound: O=C1N=C(N2CCOCC2)S/C1=C\c1ccc2c(c1)OCO2 [Compound 5a, (5Z)-5-(1,3-Benzodioxol-5-ylmethylene)-2-(morpholin-1-yl)-1,3-thiazol-4(5H)-one]
- IC50 (DYRK1A [1]; Table 5): 0.63 µM
- IC50 (Casein kinase 1 (CK1δ/ε); Table 5): > 10 µM
- IC50 (CDK5/p25; Table 5): > 10 µM
- IC50 (GSK-3α/β; Table 5): 7.4 µM

Compound: O=c1oc2ccc(O)cc2c2c1[nH]c1ccc(O)cc12 [XI]
- IC50 (DYRK1A [2]): 0.067 µM

— paper PMC8623179, “Design and Microwave Synthesis of New (5Z) 5-Arylidene-2-thioxo-1,3-thiazolinidin-4-one and (5Z) 2-Amino-5-arylidene-1,3-thiazol-4(5H)-one as New Inhibitors of Protein Kinase DYRK1A” (Pharmaceuticals, 2021)
